Results: PubChem BioAssay AID179 (DTP/NCI, 2004)
Calls of active or inactive are those of the source.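 The calls were made as follows: active = compounds giving half or more protection of infected cells from virus-caused growth loss, again on retest; inactive = the rest.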

Tested on: CEM cells HIV-1 protection, formazan growth assay
Experiment: NCI AIDS Antiviral Assay
Conditions: for IC50: measured here: growth of uninfected CEM cells
Procedure, shortened: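 Soluble formazan readout of cell growth; CEM cells ± HIV-1; 5 drug concs. ≥50% protection → retest; ≥50% again = moderately active; reproducible 100% = confirmed active.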

| SMILES | EC50 | IC50 | outcome |
| --- | --- | --- | --- |
| Cc1cc(-n2c(/C=C/c3ccc(Cl)cc3)nc3cc(Cl)ccc3c2=O)on1 | > 50.1 µM | > 50.1 µM |  |
| CC(C)(C)C(=O)OCC1OC(N=[N+]=[N-])C(OC(=O)C(C)(C)C)C(OC(=O)C(C)(C)C)C1OC(=O)C(C)(C)C (stereo not drawn) | > 200 µM | > 200 µM |  |
| Cc1cc(N=Nc2ccc(-c3ccc(N=Nc4ccc(O)c(C(=O)O)c4)cc3)cc2)c(C)cc1N | > 100 µM | 41.7 µM |  |
| c1ccc(C2(c3ccccc3)SCCCS2)cc1 | > 19.1 µM | > 19.1 µM |  |
| Cc1cccc(NP2(=O)NCCCN2)c1 | 316 µM | 398 µM |  |
| CCCCC1(C(NC(=O)c2ccccc2Cl)c2ccncc2)C(=O)N(c2ccccc2)N(c2ccccc2)C1=O (stereo not drawn) |  |  | inactive |
| CC1=CO[C@@H]2O[C@@]3(C)CC[C@H]4[C@H](C)CC[C@@H]1[C@@]24OO3 | > 200 µM | 178 µM |  |
| O=C(Nc1ccccc1)N1CCNC1=S | 162 µM | > 200 µM |  |
| C=C1C(C(=O)OC)[C@H]1C(=O)OC (stereo partly drawn) | 5.5 µM | > 200 µM |  |
| CC(=O)Nc1ccc(C(=O)N2N=C(C)/C(=C/c3cccc(O)c3)C2=O)cc1 | > 138 µM | > 138 µM |  |
| C(=C\c1ccc2ccccc2c1Nc1ccccc1)/c1ccccc1 |  |  | inactive |
| Cc1ccc(C)c2c1C/C(=C\c1ccccc1C(=O)O)C2=O | > 200 µM | 83.2 µM |  |
| CC1CC(Nc2ccc(NC3=CC(=O)OC(C)C3)cc2)=CC(=O)O1 (stereo not drawn) | > 200 µM | > 200 µM |  |
| C#CCC(O)c1ccccc1C(O)CC#C (stereo not drawn) |  |  | inactive |
| CN1C(=O)c2ccccc2C(C(=O)O)C1c1ccc2c(c1)OCO2 (stereo not drawn) | > 151 µM | > 151 µM |  |
| Nc1nc(NCC2(CO)CCC2)cc(=O)[nH]1 | > 200 µM | > 200 µM |  |
| CCc1ccccc1NC(=O)C1=C(C)NC(C)=C(C(=O)Nc2ccccc2CC)C1c1ccccc1Cl | > 10 µM | > 10 µM |  |
| COC(=O)C12C3C4C1C1C2C3C41I (stereo not drawn) | > 126 µM | > 126 µM |  |
| Cn1c(=O)c2c(nc3n2C(CCl)CO3)n(C)c1=O (stereo not drawn) |  |  | inactive |
| O=C(O)c1nc2ccccc2nc1Nc1ccc(Cl)c(Cl)c1 | > 200 µM | 11.5 µM |  |
| CC(C)(C)N=P(c1ccccc1)(c1ccccc1)c1ccccc1 | > 200 µM | 191 µM |  |
| CC1=C(OCCCl)C2CC1C1C(=O)N(c3ccccc3)C(=O)C21 (stereo not drawn) | > 389 µM | > 389 µM |  |

| SMILES | EC50 | IC50 | outcome |
| --- | --- | --- | --- |
| C=C1CC2(OC1=O)c1ccccc1CCc1ccccc12 | > 36.3 µM | 6.17 µM |  |
| OCCN(CCO)c1ccc2c(C(F)(F)F)cc(C(F)(F)F)nc2n1 | > 200 µM | 148 µM |  |
| Cc1ccc(S(=O)(=O)c2ccc(N)cc2)cc1 |  |  | inactive |
| O=C1c2ccccc2C(=O)c2c(O)c(NCCCNCCO)cc(O)c21 |  |  | inactive |
| Cc1ccc(Nc2cccc3c2C(=O)c2cccc(Nc4ccc(C)cc4S(=O)(=O)O)c2C3=O)c(S(=O)(=O)O)c1 |  |  | active |
| COc1cc(NCCCCCN=C(N)NC#N)c2ncccc2c1 | > 79.4 µM | 50.1 µM |  |
| O=S(=O)(O)c1cc(N=Nc2cc(S(=O)(=O)O)c3cccnc3c2O)ccc1/C=C/c1ccc(N=Nc2cc(S(=O)(=O)O)c3cccnc3c2O)cc1S(=O)(=O)O.[Cu+2].[Na+] | > 10.7 µM | 1.2 µM |  |
| O=c1[nH]c(-c2ccccc2)nc2cc(Cl)ccc12 |  |  | inactive |
| CCN(CC)C(=C(C(Cl)=C(Cl)Cl)[N+](=O)[O-])N(CC)CC | > 200 µM | 117 µM |  |
| CCCc1cc(=O)oc2c3c(c4c(c12)OC(C)(C)[C@H](O)[C@H]4O)O[C@@H](C)[C@H](C)[C@@H]3O | > 200 µM | 115 µM |  |
| COCO[C@@H]1C[C@H]2C(=O)N(COC)c3ccccc3C(=O)N2C1 | > 200 µM | > 200 µM |  |
| CCCCCCCCCCCCCCCCc1c(C(=O)OC)nc(NN)[nH]c1=O | > 9.33 µM | > 9.33 µM |  |
| COC(=O)[C@@H]1C[C@@H](OS(=O)(=O)c2ccc(C)cc2)CN1S(=O)(=O)c1ccc(C)cc1 | > 200 µM | 33.9 µM |  |
| COC1=CC(=O)c2c(O)c(CO)cc(O)c2C1=O |  |  | inactive |
| COc1ccc(C=C2C(=O)NC(=O)NC2=O)cc1OCc1ccccc1 | > 200 µM | 24.5 µM |  |
| Cc1nc(C)c(C(=O)NNC(=O)C[N+](C)(C)C)cc1C(=O)NNC(=O)C[N+](C)(C)C | > 200 µM | > 200 µM |  |
| Cc1cccc(C2OC(=O)c3c2ccc2ccccc32)c1 (stereo not drawn) |  |  | inactive |
| CCNCCN.[O-][Cl+3]([O-])([O-])[O-].[Pd+2].c1ccc(-c2ccccn2)nc1 | > 200 µM | 30.9 µM |  |
| CCCCN(CCCC)C(=S)S | > 200 µM | > 200 µM |  |
| CC1(C)OC2C(O)CN3CCS[C@H]3C2O1 (stereo partly drawn) | > 200 µM | > 200 µM |  |
| O=[N+]([O-])c1cc(Br)cc2c1[nH]c1nc3ccc(C(F)(F)F)cc3nc12 | > 45.7 µM | 8.32 µM |  |
| OC1(c2ccccc2)N=C(c2ccccc2)c2ccccc2-n2cccc21 (stereo not drawn) | > 200 µM | > 200 µM |  |
